According to ChEMBL document CHEMBL5113416, “Glycosylation increases the anti-QS as well as anti-biofilm and anti-adhesion ability of the cyclo (L-Trp-L-Ser) against Pseudomonas aeruginosa” (Eur J Med Chem, 2022):
Calls of active or inactive are those of the source. The calls are words filed in the database; no cut-off is given here.

Assays:
[1] = Inhibition of quorum sensing system in Pseudomonas aeruginosa PAO1 assessed as downregulation of lasR gene expression at 200 uM by qRT-PCR analysis
[2] = Inhibition of quorum sensing system in Pseudomonas aeruginosa PAO1 assessed as decrease of pyocyanin production at 200 uM for 18 hrs by microplate reader analysis
[3] = test system: Pseudomonas aeruginosa; experiment: Antibiofilm activity against Pseudomonas aeruginosa PAO1 assessed as disruption of preformed biofilm incubated for 4 hrs by crystal violet staining based microscopic analysis; assay type: functional, organism-based; conditions: PAO1, 4 h
[4] = test system: Pseudomonas aeruginosa; experiment: Anti-adhesion activity against Pseudomonas aeruginosa PAO1 assessed as inhibition of adhesion ability at 200 uM incubated for 3 hrs using glass as substrate by colony-counting method; assay type: functional
[5] = test system: Pseudomonas aeruginosa; experiment: Antibiofilm activity against Pseudomonas aeruginosa PAO1 assessed as inhibition of biofilm formation incubated for 24 hrs in presence of CaCl2 by crystal violet staining based microscopic analysis; assay type: functional, organism-based; conditions: PAO1, 24 h
[6] = test system: Pseudomonas aeruginosa; experiment: Anti-adhesion activity against Pseudomonas aeruginosa PAO1 assessed as inhibition of adhesion ability incubated for 3 hrs using glass as substrate by colony-counting method; assay type: functional, organism-based; conditions: PAO1, 3 h
[7] = Inhibition of quorum sensing system in Pseudomonas aeruginosa PAO1 assessed as decrease of pyocyanin production at 10 to 200 uM for 18 hrs by microplate reader analysis; conditions: dose 10-200 µM
[8] = test system: Pseudomonas aeruginosa; experiment: Anti-adhesion activity against Pseudomonas aeruginosa PAO1 to human A549 cells assessed as decrease in cell adhesion ability at 200 uM incubated for 3 hrs by DAPI staining based confocal microscopy; assay type: functional
[9] = biological target: Elastase (Pseudomonas aeruginosa (strain ATCC 15692 / PAO1 / 1C / PRS 101 / LMG12228)) (UniProt P14756); experiment: Inhibition of Pseudomonas aeruginosa PAO1 elastase activity at 10 to 200 uM for 18 hrs by elastin Congo red based microplate reader analysis; conditions: dose 10-200 µM
[10] = Inhibition of quorum sensing system in Pseudomonas aeruginosa PAO1 assessed as downregulation of rhlR gene expression at 200 uM by qRT-PCR analysis
[11] = Toxicity in sheep red blood cells assessed as induction of hemolysis at 200 uM for 4 hr; assay type: cell-based, Ovis aries; conditions: erythrocyte
[12] = Stability of the compound in rabbit plasma assessed as retention rate at 200 to 1000 uM and measured upto 24 hrs by HPLC analysis; assay type: ADME, cell-free, Oryctolagus cuniculus; conditions: dose 200-1000 µM, read-out: Stability
[13] = Inhibition of quorum sensing system in Pseudomonas aeruginosa PAO1 assessed as downregulation of […] gene expression at 200 uM by qRT-PCR analysis
[14] = test system: Pseudomonas aeruginosa; experiment: Antibiofilm activity against Pseudomonas aeruginosa PAO1 assessed as inhibition of biofilm formation at 200 uM incubated for 24 hrs in presence of CaCl2 by crystal violet staining based microscopic analysis; assay type: functional
[15] = test system: Pseudomonas aeruginosa; experiment: Antibiofilm activity against Pseudomonas aeruginosa PAO1 assessed as disruption of preformed biofilm at 200 uM incubated for 4 hrs by SEM analysis; assay type: functional, organism-based
[16] = test system: Pseudomonas aeruginosa; experiment: Antibiofilm activity against Pseudomonas aeruginosa PAO1 assessed as disruption of preformed biofilm at 200 uM incubated for 4 hrs by crystal violet staining based microscopic analysis; assay type: functional
[17] = test system: Pseudomonas aeruginosa; experiment: Antibiofilm activity against Pseudomonas aeruginosa PAO1 assessed as disruption of preformed biofilm at 200 uM incubated for 4 hrs by Confocal microscopic analysis; assay type: functional, organism-based
[18] = test system: Pseudomonas aeruginosa; experiment: Synergistic bactericidal activity against Pseudomonas aeruginosa PAO1 assessed as reduction in bacterial density at 200 uM incubated for 6 hrs in presence of azithromycin by colony-counting method; assay type: functional; design: scale not given: the % may be the effect or the level left
[19] = test system: A549; experiment: Cytotoxicity against human A549 cells assessed as reduction in cell viability at 2 mM incubated for 24 hrs by MTT assay; assay type: toxicity, cell-based; conditions: a549, 24 h, 2000 µM
[20] = test system: Pseudomonas aeruginosa; experiment: Synergistic bactericidal activity against Pseudomonas aeruginosa PAO1 assessed as reduction in bacterial density at 200 uM incubated for 1 hrs in presence of azithromycin by colony-counting method; assay type: functional; design: scale not given: the % may be the effect or the level left
[21] = Toxicity in sheep red blood cells assessed as induction of hemolysis measured after 4 hr; assay type: cell-based, Ovis aries, Erythrocyte
[22] = test system: Pseudomonas aeruginosa; experiment: Antibiofilm activity against Pseudomonas aeruginosa PAO1 assessed as inhibition of swarming motility at 200 uM for 18 hrs by motility assay; assay type: functional, organism-based
[23] = test system: Pseudomonas aeruginosa; experiment: Antibiofilm activity against Pseudomonas aeruginosa PAO1 assessed as inhibition of biofilm formation at 10 to 200 uM incubated for 24 hrs in presence of CaCl2 by crystal violet staining based microscopic analysis; assay type: functional, organism-based; conditions: dose 10-200 µM
[24] = biological target: T1, PA-I galactophilic lectin (Pseudomonas aeruginosa (strain ATCC 15692 / PAO1 / 1C / PRS 101 / LMG12228), UniProt Q05097); experiment: Binding affinity to Pseudomonas aeruginosa PAO1 LecA assessed as dissociation constant by ITC analysis
T1 sequence (Q05097 whole entry): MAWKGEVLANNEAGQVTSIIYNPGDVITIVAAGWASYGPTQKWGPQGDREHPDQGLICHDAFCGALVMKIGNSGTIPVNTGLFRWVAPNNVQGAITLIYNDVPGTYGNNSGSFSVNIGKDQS

[25] = test system: Pseudomonas aeruginosa; experiment: Anti-adhesion activity against Pseudomonas aeruginosa PAO1 assessed as inhibition of adhesion ability at 200 uM incubated for 3 hrs using glass as substrate by SEM analysis; assay type: functional, organism-based
[26] = test system: Pseudomonas aeruginosa; experiment: Anti-adhesion activity against Pseudomonas aeruginosa PAO1 assessed as inhibition of adhesion ability at 50 ug/ml incubated for 3 hrs using glass as substrate by SEM analysis; assay type: functional, organism-based; conditions: dose 50.0 µg/ml
[27] = test system: Pseudomonas aeruginosa; experiment: Bactericidal activity against Pseudomonas aeruginosa PAO1 assessed as reduction in bacterial density at 150 ug/ml incubated for 1 hrs by colony-counting method; assay type: functional; design: scale not given: the % may be the effect or the level left; conditions: dose 150 µg/ml
[28] = test system: Pseudomonas aeruginosa; experiment: Bactericidal activity against Pseudomonas aeruginosa PAO1 assessed as reduction in bacterial density at 150 ug/ml incubated for 6 hrs by colony-counting method; assay type: functional; design: scale not given: the % may be the effect or the level left; conditions: dose 150 µg/ml
[29] = test system: Pseudomonas aeruginosa; experiment: Anti-adhesion activity against Pseudomonas aeruginosa PAO1 assessed as inhibition of adhesion ability at 50 ug/ml incubated for 3 hrs using glass as substrate by colony-counting method; assay type: functional

Sequence of Elastase (Pseudomonas aeruginosa (strain ATCC 15692 / PAO1 / 1C / PRS 101 / LMG12228)) (P14756 198-498 limits assumed): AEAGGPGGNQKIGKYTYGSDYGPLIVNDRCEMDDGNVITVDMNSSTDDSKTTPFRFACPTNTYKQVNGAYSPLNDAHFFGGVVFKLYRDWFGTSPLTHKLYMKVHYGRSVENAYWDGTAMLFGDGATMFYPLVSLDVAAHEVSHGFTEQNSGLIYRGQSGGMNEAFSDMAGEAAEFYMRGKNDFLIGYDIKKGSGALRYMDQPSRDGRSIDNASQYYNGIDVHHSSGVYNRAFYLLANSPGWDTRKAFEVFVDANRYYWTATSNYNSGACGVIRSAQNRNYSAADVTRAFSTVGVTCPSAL

EC50 [3]	IC50 [5]	IC50 [6]	inhibition [7]	inhibition [9]	inhibition [10]	remaining at 24 h, up to 1000 µM [12]	inhibition [13]	SMILES	inhibition at 200 µM [4]	Activity [8]	Activity [11]	inhibition at 200 µM [14]	Activity [15]	Activity [16]	Activity [17]	Activity [18]	Activity [19]	Activity [20]	HC50 at 4 h [21]	Activity [22]	also measured
800 µM	600 µM	800 µM	Active	–	–	–	–	O=C1N[C@@H](Cc2c[nH]c3ccccc23)C(=O)N[C@H]1CO	16%	Active	–	–	–	–	–	–	–	–	–	–	inhibition [1]: 20%; inhibition [2]: 35%
300 µM	250 µM	500 µM	Active	Active	Active	> 70%	Active	O=C1N[C@@H](Cc2c[nH]c3ccccc23)C(=O)N[C@H]1CO[C@@H]1O[C@H](CO)[C@@H](O)[C@H](O)[C@H]1O	32%	Active	Non-Toxic	44%	Active	47%	Active	5%	90%	73%	> 10 mM	Active	–
80 µM	100 µM	200 µM	Active	Active	Active	> 70%	Active	O=C1N[C@@H](Cc2c[nH]c3ccccc23)C(=O)N[C@H]1CO[C@@H]1O[C@H](CO)[C@H](O)[C@H](O)[C@H]1O	50%	29%	Non-Toxic	69%	Active	54%	Active	7%	90%	81%	> 10 mM	Active	inhibition [23]: Active; Kd [24]: 91.3 µM; inhibition [25]: Active
–	–	–	–	–	–	–	–	CC[C@H]1OC(=O)[C@H](C)[C@@H](O[C@H]2C[C@@](C)(OC)[C@@H](O)[C@H](C)O2)[C@H](C)[C@@H](O[C@@H]2O[C@H](C)C[C@H](N(C)C)[C@H]2O)[C@](C)(O)C[C@@H](C)CN(C)[C@H](C)[C@@H](O)[C@]1(C)O [AZITHROMYCIN]	–	–	–	–	–	–	–	–	–	–	–	–	inhibition [26]: Active; Activity [27]: 99%; Activity [28]: 27%; inhibition at 50 µg/mL [29]: 48%
